Data taken from US20020137929A1, “1 - (3-heterocyclylphenyl) isothiourea, -isourea, -guanidine and -amidine herbicidal agents” (Intellectual Property Department, BASF Aktiengesellschaft, priority 1998, published 2002).

How the values were obtained:
[1] = test system: CASOB (Sicklepod); test: Postemergence herbicidal evaluation; format: in vivo, Cassia obtusifolia; conditions: postemergence
Method in brief: (§1)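 Visual 0–9 rating versus control (stand, vigor, malformation, size, chlorosis, overall appearance), taken four to five weeks post-spray. Two-week-old seedlings received roughly 0.0156–0.500 kg/ha active in acetone/water (50/50) with 0.5% TWEEN 20 via nozzle at 40 psi.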

[2] = test system: CASOB (Sicklepod); test: Preemergence herbicidal evaluation; format: in vivo, Cassia obtusifolia; conditions: preemergence, rated 4-5 weeks after treatment, 0-9 scale
Method in brief: (§2)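 Rating at 4–5 wk post-spray on a 0–9 visual scale vs control. Application: aqueous acetone, ~0.0156–0.500 kg/ha, to soil surface after seeding, preemergence.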

[3] = test system: CYPSE (Flatsedge); test: Preemergence weed control under flooded paddy conditions; format: in vivo, Cyperus serotinus; conditions: rated 3-4 weeks after treatment
Method in brief: (§3)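 Flooded-pot preemergence screen with silt loam and seeds in the upper 0.5 cm. Dose about 0.0313 to 0.500 kg/ha, delivered into flood water; visual 0-9 score after 3 to 4 weeks.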

[4] = test system: CHEAL (Lambsquarters, Common); test: Postemergence herbicidal evaluation; format: in vivo, Chenopodium album; conditions: postemergence
Method in brief: as §1

[5] = test system: GALAP (Galium); test: Postemergence herbicidal evaluation; format: in vivo, Galium aparine; conditions: postemergence
Method in brief: as §1

[6] = test system: ZEAMX (Corn, Field); test: Preemergence herbicidal evaluation; format: in vivo, Zea mays; conditions: preemergence, rated 4-5 weeks after treatment, 0-9 scale
Method in brief: as §2

[7] = test system: GLXMAW (Soybean, Williams); test: Postemergence herbicidal evaluation; format: in vivo, Glycine max, (L.) Merr. cv Williams; conditions: postemergence
Method in brief: as §1

[8] = test system: CYPIR (Rice Flatsedge); test: Preemergence weed control under flooded paddy conditions; format: in vivo, Cyperus iria; conditions: rated 3-4 weeks after treatment
Method in brief: as §3

[9] = test system: CYPSE (Flatsedge); test: Postemergence weed control under flooded paddy conditions; format: in vivo, Cyperus serotinus; conditions: postemergence weeds, rated 3 to 4 weeks after treatment
Method in brief: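 Containers holding 3–5 cm weeds and rice at 1.5–2.5 leaves are flooded to 1.5–3 cm above soil. Compound in 50/50 v/v aqueous/acetone is then added directly to the water, about 0.0313–0.500 kg/ha. Plants are kept in the greenhouse and rated 0–9 visually at 3–4 weeks.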

[10] = test system: SAGPY (Arrowhead (Pygmaea)); test: Preemergence weed control under flooded paddy conditions; format: in vivo, Sagittaria pygmaea; conditions: rated 3-4 weeks after treatment
Method in brief: as §3

[11] = test system: AMBEL (Ragweed, Common); test: Postemergence herbicidal evaluation; format: in vivo, Ambrosia artemisifolia; conditions: postemergence
Method in brief: as §1

[12] = test system: GALAP (Galium); test: Preemergence herbicidal evaluation; format: in vivo, Galium aparine; conditions: preemergence, rated 4-5 weeks after treatment, 0-9 scale
Method in brief: as §2

[13] = test system: SETVI (Foxtail, Green); test: Postemergence herbicidal evaluation; format: in vivo, Setaria viridis; conditions: postemergence
Method in brief: as §1

[14] = test system: ORYSAT (Rice, Tebonnet); test: Postemergence herbicidal evaluation; format: in vivo, Oryza sativa, (L.) Tebonnet; conditions: postemergence
Method in brief: as §1

[15] = test system: ECHCG (Barnyardgrass); test: Postemergence herbicidal evaluation; format: in vivo, Echinochloa crus-galli; conditions: postemergence
Method in brief: as §1

## CCOC(=O)CN1C(=O)C(CC(=O)NS(=O)(=O)c2ccccc2)SC1=Nc1cc(-n2c(=O)cc(C(F)(F)F)n(C)c2=O)c(F)cc1Cl (stereo not shown) [Compound 100, Ethyl 2-{{2-chloro-5-[3,6-dihydro-3-methyl-2,6-dioxo-4-(trifluoromethyl)-1(2H)-pyrimidinyl]-4-fluorophenyl}imino}-4-oxo-5-{[(phenylsulfonyl)-carbamoyl]methyl]-3-thiazolidineacetate]
[1]; rate 0.0156 kg/ha
  herbicidal rating CASOB: 2.0
[1]; rate 0.0313 kg/ha
  herbicidal rating CASOB: 7.0
[1]; rate 0.0625 kg/ha
  herbicidal rating CASOB: 6.0
[1]; rate 0.1250 kg/ha
  herbicidal rating CASOB: 9.0
[2]; 0.0313 kg/ha
  CASOB rating: 0.0
[2]; 0.0625 kg/ha
  CASOB rating: 0.0
[2]; 0.1250 kg/ha
  CASOB rating: 0.0
[2]; 0.2500 kg/ha
  CASOB rating: 0.0
[2]; 0.5000 kg/ha
  CASOB rating: 8.0
[3]; 0.0313 kg/ha
  CYPSE herbicidal effect rating: 0.0
[3]; 0.0625 kg/ha
  CYPSE herbicidal effect rating: 0.0
[3]; 0.1250 kg/ha
  CYPSE herbicidal effect rating: 0.0
[3]; 0.2500 kg/ha
  CYPSE herbicidal effect rating: 0.0
[4]; rate 0.0156 kg/ha
  herbicidal rating CHEAL: 5.0
[4]; rate 0.0313 kg/ha
  herbicidal rating CHEAL: 7.0
[4]; rate 0.0625 kg/ha
  herbicidal rating CHEAL: 7.0
[4]; rate 0.1250 kg/ha
  herbicidal rating CHEAL: 9.0
[5]; rate 0.0156 kg/ha
  herbicidal rating GALAP: 1.0
[5]; rate 0.0313 kg/ha
  herbicidal rating GALAP: 2.0
[5]; rate 0.0625 kg/ha
  herbicidal rating GALAP: 3.0
[5]; rate 0.1250 kg/ha
  herbicidal rating GALAP: 3.0
[6]; 0.0313 kg/ha
  ZEAMX rating: 0.0
[6]; 0.0625 kg/ha
  ZEAMX rating: 0.0
[6]; 0.1250 kg/ha
  ZEAMX rating: 0.0
[6]; 0.2500 kg/ha
  ZEAMX rating: 0.0
[6]; 0.5000 kg/ha
  ZEAMX rating: 1.0
[7]; rate 0.0156 kg/ha
  herbicidal rating GLXMAW: 5.5
[7]; rate 0.0313 kg/ha
  herbicidal rating GLXMAW: 6.0
[7]; rate 0.0625 kg/ha
  herbicidal rating GLXMAW: 6.5
[7]; rate 0.1250 kg/ha
  herbicidal rating GLXMAW: 7.0
[8]; 0.0313 kg/ha
  CYPIR herbicidal effect rating: 0.0
[8]; 0.0625 kg/ha
  CYPIR herbicidal effect rating: 0.0
[8]; 0.1250 kg/ha
  CYPIR herbicidal effect rating: 0.0
[8]; 0.2500 kg/ha
  CYPIR herbicidal effect rating: 4.0
[8]; 0.5000 kg/ha
  CYPIR herbicidal effect rating: 9.0
[9]; Rate 0.0313 kg/ha
  Herbicidal rating CYPSE: 0.0
[9]; Rate 0.0625 kg/ha
  Herbicidal rating CYPSE: 0.0
[9]; Rate 0.1250 kg/ha
  Herbicidal rating CYPSE: 0.0
[9]; Rate 0.2500 kg/ha
  Herbicidal rating CYPSE: 0.0
[10]; 0.0313 kg/ha
  SAGPY herbicidal effect rating: 0.0
[10]; 0.0625 kg/ha
  SAGPY herbicidal effect rating: 0.0
[10]; 0.1250 kg/ha
  SAGPY herbicidal effect rating: 0.0
[10]; 0.2500 kg/ha
  SAGPY herbicidal effect rating: 4.0
[10]; 0.5000 kg/ha
  SAGPY herbicidal effect rating: 6.0
[11]; rate 0.0156 kg/ha
  herbicidal rating AMBEL: 9.0
[11]; rate 0.0313 kg/ha
  herbicidal rating AMBEL: 9.0
[11]; rate 0.0625 kg/ha
  herbicidal rating AMBEL: 9.0
[11]; rate 0.1250 kg/ha
  herbicidal rating AMBEL: 7.0
[12]; 0.0313 kg/ha
  GALAP rating: 0.0
[12]; 0.0625 kg/ha
  GALAP rating: 1.0
[12]; 0.2500 kg/ha
  GALAP rating: 6.0
[12]; 0.5000 kg/ha
  GALAP rating: 6.0
[13]; rate 0.0156 kg/ha
  herbicidal rating SETVI: 2.0
[13]; rate 0.0313 kg/ha
  herbicidal rating SETVI: 9.0
[13]; rate 0.0625 kg/ha
  herbicidal rating SETVI: 6.0
[13]; rate 0.1250 kg/ha
  herbicidal rating SETVI: 7.0
[14]; rate 0.0156 kg/ha
  herbicidal rating ORYSAT: 3.0
[14]; rate 0.0313 kg/ha
  herbicidal rating ORYSAT: 3.5
[14]; rate 0.0625 kg/ha
  herbicidal rating ORYSAT: 3.5
[14]; rate 0.1250 kg/ha
  herbicidal rating ORYSAT: 3.5
[15]; rate 0.0156 kg/ha
  herbicidal rating ECHCG: 1.0
[15]; rate 0.0313 kg/ha
  herbicidal rating ECHCG: 3.0
[15]; rate 0.0625 kg/ha
  herbicidal rating ECHCG: 4.0
[15]; rate 0.1250 kg/ha
  herbicidal rating ECHCG: 7.0
